Measurements reported in patent US20230312587A1, “PTERIDINONE COMPOUNDS AND USES THEREOF” (Vertex Pharmaceutical Incorporated, priority 2018, published 2023).
pEC50, pIC50, pKi: −log10 of the molar value. Where two headings read alike, the source gives them in different places.

Legend:
[1] = system: β-catenin-TCF-mediated reporter transcription activity in Colo 205 cells; test: Colo 205 reporter assay (TCF/LEF luciferase); format: cell-based; details: Colo 205 TCF/LEF luciferase reporter, five hours after addition of compound, read-out: TCF reporter Colo205 IC50
How it was run: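 Luciferase signal from a TCF/LEF-driven reporter, stably integrated in Colo 205 colon cancer cells, was measured 5 h after compound addition.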

Plk1 = Plk1 (Homo sapiens (Human), UniProt P53350); test: PLK1 inhibition assay (radioactive-phosphate incorporation); format: biochemical; details: Ki(app), read-out: PLK1 - 33P.ENZ - CB 10 Ki
Procedure: Compounds were screened for their ability to inhibit Plk1 using a radioactive-phosphate incorporation assay. Assays were carried out in a mixture of 25 mM HEPES (pH 7.5), 10 mM MgCl2, 25 mM NaCl, and 2 mM DTT. Final substrate concentrations were 20 μM [γ-33P]ATP (35mCi 33P ATP/mmol ATP, Perkin Elmer/Sigma Chemicals) and 9 uM Sam68 protein. Assays were carried out at room temperature in the presence of 15 nM Plk1. An assay stock buffer solution was prepared containing all of the reagents listed above, with the exception of ATP and the test compound of interest. 0.75 μL of DMSO stock containing serial dilutions of the test compound (typically starting from a final concentration of 10 μM with 2-fold serial dilutions—final DMSO concentration 1.5%) was placed in a 384 well plate followed by addition of 25 μL [γ-33P]ATP (final concentration 20 μM). The reaction was initiated by addition of 25 μL of the assay stock buffer solution.
The reaction was stopped after 45 minutes by the addition of 25 μL 30% trichloroacetic acid (TCA) containing 10 mM cold ATP. The entire quenched reaction was transferred to a 384-well glass fiber filter plate (Millipore, Cat no. MZFBNOW50). The plate was washed with 3×5% TCA. After drying, 40 μL of Ultima Gold liquid scintillation cocktail (Perkin Elmer) was added to the well prior to scintillation counting in a PerkinElmer TopCount.
After removing mean background values for all of the data points, Ki(app) data were calculated from non-linear regression analysis of the initial rate data using the Prism software package (GraphPad Prism, GraphPad Software, San Diego California, USA).

[2] = molecular target: HEK293 membranes over-expressing WFS-1 (Homo sapiens (Human), UniProt O76024); test: Radioligand displacement assay (tritiated Compound 136 probe); format: binding; details: displacement of tritiated Compound 136
Procedure: Cell pellets were re-suspended in 15 times packed cellular volume in 4° C. hypotonic lysis buffer (10 mM HEPES, pH 7.5 containing 1×Protease inhibitor, 0.5 mM EDTA and 2 mM DTT). Re-suspended cells were homogenized with 6-8 strokes in a dounce homogenizer kept on ice. Lysates were centrifuged at 500×G for 15 minutes at 4° C. without brake to decelerate rotor. Following centrifugation, remove the supernatant to a fresh tube and place on ice (Supernatant 1). Repeat the above steps on the lysed cell pellet using 0.5 the original volume of hypotonic lysis buffer and remove the 500× G supernatant (Supernatant 2) and combine with Supernatant 1. Transfer the combined supernatants to a 45-Ti ultracentrifuge tube and centrifuge at 100,000× G for 30 minutes. Following ultracentrifugation, carefully remove the supernatant and discard. Resuspend the 100,000× G pellet in cold resuspension buffer (10 mM HEPES, pH 7.5, 300 mM NaCl containing 1× Protease inhibitor, 1× EDTA and 2 mM DTT). Centrifuge sample at 500× G for 10 minutes with no brake and remove any cloudy, flocculent material. Resuspend pellet in resuspension buffer to approximately 2 mg/mL of protein concentration for use in radioligand binding assay and immunoblotting.
The binding affinities of compounds were determined by measuring the competitive displacement of a tritiated Compound 136 probe from purified HEK293 membranes over-expressing WFS-1. The data for the radioligand displacement assay are summarized in Table 47: A<0.06 μM; 0.06 μM≤B<0.6 μM; 0.6 μM≤C<3.0 μM; D≥3.0 μM.
The probe Kd was determined by titrating tritiated probe under the standard assay conditions plus and minus excess unlabeled probe and fitting the resulting data to a “One site—Total and nonspecific binding” model in Graphpad Prism, version 6.0, San Diego, CA, US. Initially, 0.25 μl of compound dissolved in DMSO at varying concentrations was dispensed to a 384 well plate. Membrane and probe were both prepared at 2× their final concentration in 1× assay buffer as described above. 25 μL of membrane was added to the wells and incubated for 10 minutes. 25 μL of diluted probe was then added to the wells. The assay was incubated for 90 minutes at room temperature. The entire assay volume was then transferred to Millipore GF/B 384-well plates pretreated with 15 μL 0.5% PEI. The filter plates were washed 3× with 75 μL 25 mM TRIS, ph7.5, 0.1% BSA and then dried overnight. Following addition of 45 μL UltimaGold scintillant, the samples were counted in a Perkin Elmer Topcount. The radioactivity remaining is a measure of bound probe. From the bound probe vs concentration of compound titration curve, the IC50 is determined by fitting the data to a standard 3 parameter IC50 model using either Graphpad Prism, version 6.0, San Diego, CA, US, or using GeneData Analyzer, Basel, Switzerland.

Colo-205 cells = test: Calcium flux assay (FLIPR Calcium 5); format: cell-based; details: FLIPR Calcium 5, measured over 36 minutes
Procedure: Compounds described herein induced ER stress by causing intracellular calcium flux. Calcium flux was measured in Colo-205 cells using the FLTPR® Calcium 5 Assay Kit according to manufacter's protocol (Molecular Devices, Cat. #R8186) on a FLIPR3 system (Molecular Devices). Calcium flux is measured over 36 minutes. The Colo-205 calcium flux assay data are summarized in Table 47: A<0.6 μM; 0.6 μM≤B<2.0 μM; 2.0 μM≤C<10.0 μM; D≥10.0 μM.

HepG2 XBP1(u)-Luc cells = test: HepG2 XBP1 reporter assay; format: cell-based; details: 6 h
Procedure: HepG2 hepatoma cells were transduced with a retrovirus encoding the cDNA for unspliced (u) XBP1, which contains a non-processed intron, fused to the cDNA for firefly luciferase. Upon induction of ER stress, the non-processed intron of XBP1(u) is spliced out by active IRE1alpha endonuclease. The resulting spliced (s) XBP1 is now in frame with luciferase which causes the production of active luciferase protein, resulting in bioluminescence
HepG2 XBP1(u)-Luc cells were plated […] Cultured cells with a stably transfected reporter construct were plated at approximately 30,000 cells per well into 96 well multi-well plates for twenty four hours. The testing compounds were then added to the wells in 3-fold serial dilutions using a twenty seven micromolar top concentration. A series of control wells for each cell type received only compound solvent. Six hours after the addition of compound, reporter activity for luciferase was assayed, by addition of the SteadyGlo luminescence reagent (Promega). The reporter luminescence activity was measured using Pherastar plate reader (BMG Labtech). Readings was normalized to DMSO only treated cells, and normalized activities were then used in the IC50 calculations. The HepG2 XBP1 reporter assay data are summarized in Table 47: A<0.6 μM; 0.6 μM≤B<2.0 μM; 2.0 μM≤C<10.0 μM; D≥10.0 μM.

[3] = system: Colo205-TCF/LEF-Luciferase (Luc) tumor; test: In vivo inhibition of TCF/LEF reporter activity in Colo-205 tumors; set-up: concentration or dose not given beside the values; details: TCF/LEF luciferase reporter in Colo-205 tumors, nu/nu mice, oral gavage
How it was run: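 Female nu/nu mice carried subcutaneous Colo205-TCF/LEF-luciferase tumours (200–500 mm^3), n=4 per group. Compound was given by oral gavage in 1:3:5:1 EtOH:DMSO:PEG-400:H2O at 10 ml/kg, with vehicle as control. Luciferase activity in tumour lysates (Steady-Glo) was normalised to BCA protein.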

Sequence of HEK293 membranes over-expressing WFS-1 (O76024 whole entry): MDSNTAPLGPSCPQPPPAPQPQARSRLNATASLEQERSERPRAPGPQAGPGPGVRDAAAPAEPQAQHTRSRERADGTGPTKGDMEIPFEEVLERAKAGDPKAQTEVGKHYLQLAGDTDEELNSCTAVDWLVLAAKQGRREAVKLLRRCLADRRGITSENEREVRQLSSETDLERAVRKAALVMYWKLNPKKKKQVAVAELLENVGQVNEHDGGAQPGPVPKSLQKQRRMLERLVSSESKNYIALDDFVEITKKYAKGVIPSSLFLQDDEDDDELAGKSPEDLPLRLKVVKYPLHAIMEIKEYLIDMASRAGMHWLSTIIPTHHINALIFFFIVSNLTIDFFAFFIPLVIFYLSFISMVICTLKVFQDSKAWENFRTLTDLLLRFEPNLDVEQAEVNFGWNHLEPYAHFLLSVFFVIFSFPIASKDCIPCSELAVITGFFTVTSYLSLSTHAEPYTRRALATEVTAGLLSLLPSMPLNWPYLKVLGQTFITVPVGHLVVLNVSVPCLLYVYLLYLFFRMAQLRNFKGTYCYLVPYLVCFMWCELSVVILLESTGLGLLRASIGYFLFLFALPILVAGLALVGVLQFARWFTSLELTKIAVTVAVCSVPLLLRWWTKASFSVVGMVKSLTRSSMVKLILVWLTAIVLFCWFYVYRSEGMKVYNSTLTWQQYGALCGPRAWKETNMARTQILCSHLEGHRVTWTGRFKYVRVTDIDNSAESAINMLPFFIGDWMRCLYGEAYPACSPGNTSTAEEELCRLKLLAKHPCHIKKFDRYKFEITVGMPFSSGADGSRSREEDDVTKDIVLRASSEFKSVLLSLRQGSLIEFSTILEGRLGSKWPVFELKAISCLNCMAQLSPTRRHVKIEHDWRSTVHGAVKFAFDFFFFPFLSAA
Sequence of Plk1 (P53350 whole entry, species assumed): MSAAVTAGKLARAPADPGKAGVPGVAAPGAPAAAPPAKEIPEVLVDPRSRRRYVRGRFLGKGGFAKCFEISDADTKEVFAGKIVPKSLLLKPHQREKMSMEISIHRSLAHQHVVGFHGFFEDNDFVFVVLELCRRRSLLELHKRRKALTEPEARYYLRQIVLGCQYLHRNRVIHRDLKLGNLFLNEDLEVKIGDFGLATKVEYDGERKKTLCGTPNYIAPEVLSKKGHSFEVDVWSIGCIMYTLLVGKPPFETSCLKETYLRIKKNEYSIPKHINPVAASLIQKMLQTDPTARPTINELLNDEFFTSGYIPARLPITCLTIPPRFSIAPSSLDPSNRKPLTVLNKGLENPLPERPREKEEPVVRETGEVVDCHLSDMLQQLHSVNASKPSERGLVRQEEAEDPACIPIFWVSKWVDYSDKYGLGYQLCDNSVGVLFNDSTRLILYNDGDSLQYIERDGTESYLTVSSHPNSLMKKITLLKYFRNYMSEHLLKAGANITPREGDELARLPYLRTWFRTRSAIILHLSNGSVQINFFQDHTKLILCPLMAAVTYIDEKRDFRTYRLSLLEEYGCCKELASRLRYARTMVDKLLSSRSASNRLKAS

Cc1noc(C)c1Cn1cc(CNc2nc(C)c3c(n2)N(C)[C@@H](C)C(=O)N3)cn1 [Compound 138, (7S)-2-(((1-((3,5-dimethylisoxazol-4-yl)methyl)-1H-pyrazol-4-yl)methyl)amino)-4,7,8-trimethyl-7,8-dihydropteridin-6(5H)-one]
pIC50 ([1]; Homo sapiens, COLO 205, 5 h): > 6.52 | pKi (Plk1): < 5.40

CCN1C(=O)[C@H](C)N(CC)c2nc(NCc3cnn(Cc4ccc(F)cc4)c3)ncc21 [Compound 30, (7S)-5,8-diethyl-2-(((1-(4-fluorobenzyl)-1H-pyrazol-4-yl)methyl)amino)-7-methyl-7,8-dihydropteridin-6(5H)-one]
pIC50 ([1]; Homo sapiens, COLO 205, 5 h): > 6.52 | pKi (Plk1): < 5.40

CC[C@H]1C(=O)Nc2c(C)nc(NCc3cnn(C4CC(F)(F)C4)c3)nc2N1C [Compound 795, (S)-2-(((1-(3,3-difluorocyclobutyl)-1H-pyrazol-4-yl)methyl)amino)-7-ethyl-4,8-dimethyl-7,8-dihydropteridin-6(5H)-one]
pIC50 ([1]; Homo sapiens, COLO 205, 5 h): > 6.52 | pIC50 [2]: 6.22 to 7.22 | pEC50 (Colo-205 cells; Homo sapiens, COLO 205, 0.6 h): > 6.22 | pIC50 (HepG2 XBP1(u)-Luc cells; Homo sapiens): > 6.22

CCN1C(=O)[C@H](C)N(C(C)C)c2nc(NCc3cnn(Cc4cc(F)c(F)c(F)c4)c3)ncc21 [Compound 51, (7S)-5-ethyl-8-isopropyl-7-methyl-2-(((1-(3,4,5-trifluorobenzyl)-1H-pyrazol-4-yl)methyl)amino)-7,8-dihydropteridin-6(5H)-one]
pIC50 ([1]; Homo sapiens, COLO 205, 5 h): > 6.52 | pKi (Plk1): < 5.40

Cc1nc(N[C@H]2C[C@@H](COc3ccc(C(F)(F)F)nc3)C2)nc2c1NC(=O)[C@H](C(C)C)N2C (relative stereo) [Compound 551, (S)-7-isopropyl-4,8-dimethyl-2-((cis-3-(((6-(trifluoromethyl)pyridin-3-yl)oxy)methyl)cyclobutyl)amino)-7,8-dihydropteridin-6(511)-one]
Percent Remaining Activity at 8 hrs after Dosing [3]: 20% | pIC50 [1]: > 6.52 | pIC50 [2]: > 7.22 | pEC50 (Colo-205 cells): > 6.22

Cc1nc(NCc2cnn(Cc3ccc(F)cc3)c2)nc2c1NC(=O)C1(CC1)N2C [Compound 221, 2′-(((1-(4-fluorobenzyl)-1H-pyrazol-4-yl)methyl)amino)-4′,8′-dimethyl-5′,8′-dihydro-6′H-spiro[cyclopropane-1,7′-pteridin]-6′-one]
pIC50 ([1]; Homo sapiens, COLO 205, 5 h): > 6.52 | pKi (Plk1): < 5.40

CC[C@H]1C(=O)N(CC)c2cnc(NCc3cnn(Cc4ccc(F)cc4)c3)nc2N1C [Compound 19, (7S)-5,7-Diethyl-2-(((1-(4-fluorobenzyl)-1H-pyrazol-4-yl)methyl)amino)-8-methyl-7,8-dihydropteridin-6(5H)-one]
pIC50 ([1]; Homo sapiens, COLO 205, 5 h): 6.00 to 6.52 | pKi (Plk1): < 5.40

CC[C@@]1(C)C(=O)N(C)c2cnc(NCc3cnn(Cc4ccc(F)cc4)c3)nc2N1C [Compound 2, (7S)-7-ethyl-2-(((1-(4-fluorobenzyl)-1H-pyrazol-4-yl)methyl)amino)-5,7,8-trimethyl-7,8-dihydropteridin-6(5H)-one]
pKi (Plk1): < 5.40

CO[C@H](C)[C@H]1C(=O)Nc2c(C)nc(N[C@H]3C[C@@H](COc4ccc(C(F)(F)F)nc4)C3)nc2N1C [Compound 643, (S)-7-((R)—1-methoxyethyl)-4,8-dimethyl-2-((cis-3-(((6-(trifluoromethyl)pyridin-3-yl)oxy)methyl)cyclobutyl)amino)-7,8-dihydropteridin-6(5H)-one]
Percent Remaining Activity at 8 hrs after Dosing [3]: 22% | pIC50 ([1]; Homo sapiens, COLO 205, 5 h): > 6.52 | pIC50 [2]: > 7.22 | pEC50 (Colo-205 cells; Homo sapiens, COLO 205, 0.6 h): > 6.22

Cc1nc(N[C@H]2C[C@H](Oc3cc(F)c(F)cc3F)C2)nc2c1NC(=O)[C@H](C)N2C [Compound 292, (7S)-4,7,8-trimethyl-2-((trans 3-(2,4,5-trifluorophenoxy)cyclobutyl)amino)-7,8-dihydropteridin-6(5H)-one]
pIC50 ([1]; Homo sapiens, COLO 205, 5 h): > 6.52 | pIC50 [2]: > 7.22 | pEC50 (Colo-205 cells; Homo sapiens, COLO 205, 0.6 h): > 6.22 | pIC50 (HepG2 XBP1(u)-Luc cells; Homo sapiens): > 6.22

Cc1nc(N[C@H]2C[C@@H](COc3cnc(C(F)(F)F)nc3)C2)nc2c1NC(=O)[C@H](C(C)C)N2C [Compound 1417, (S)-7-isopropyl-4,8-dimethyl-2-(((1s,3R)-3-(((2-(trifluoromethyl)pyrimidin-5-yl)oxy)methyl)cyclobutyl)amino)-7,8-dihydropteridin-6(5H)-one]
pIC50 [1]: > 6.52 | pIC50 [2]: 6.22 to 7.22 | pEC50 (Colo-205 cells): > 6.22 | pIC50 (HepG2 XBP1(u)-Luc cells): > 6.22
